# Source: patent US20220010019A1, “Targeting intraepithelial lymphocytes for treatment of metabolic syndrome” (The General Hospital Corporation, priority 2018, published 2022)
# Test system: Ldlr−/− mice
# Experiment: Atherosclerotic lesion quantification in HCD-fed Ldlr−/− mice, Glp1r agonist treatment
# Type: in vivo
# Conditions: 8 weeks on HCD, 100 μg per kg per day via osmotic minipumps, vs PBS
# Procedure: Glp1r agonist treatment. Ldlr−/− mice were treated with the Glp1r agonist exendin-4 (Abcam) at a dose of 100 μg per kg per day via osmotic minipumps (Alzet). After 8 weeks on a HCD, mice were euthanized for atherosclerotic lesion quantification.
# Adipose tissue. iWAT and pWAT were excised, fixed in 10% formalin solution and paraffin-embedded. Haematoxylin and eosin staining was performed to assess overall tissue morphology. The adipocyte size distribution was determined with the NIH ImageJ program. Aortas. Aortic roots were dissected, embedded in Tissue-Tek OCT compound (Sakura Finetek) and frozen in 2-methylbutane (Fisher Scientific) cooled with dry ice. For comparisons of lesion sizes between the groups, sections with the maximum lesion area were used. To measure lesion volume, sections were collected at the first appearance of the aortic valves until lesions were no longer visible. Oil red O staining (Sigma-Aldrich) was performed to visualize lipid content and the lesion size was measured. To quantify lesion macrophage and smooth muscle cell content, immunohistochemistry was performed with anti-CD68 (BioLegend) and anti-Myh11 (Millipore) antibodies. […] To quantify collagen content, Masson trichrome staining (Sigma-Aldrich) was performed.
substance,measurement,value
exendin-4,"atherosclerosis (plaque size, oil-red O-stained aortas)",attenuated atherosclerosis
